# “Also recorded” adds a separate entry of the source.
# What was measured:
# [1] = test system: H3K4me3 in the dentate gyrus GCL; experiment: Immunofluorescence of H3K4me3 in the dentate gyrus GCL after oral AR-42; format: in vivo, mouse; details: 25 mg/kg/day oral, two weeks, from 20 weeks of age; vs untreated; FIG. 24A, 24B
# Excerpt: Kmt2d^+/βGeo mice, also named Mll2Gt^(RRt024) Byg, were acquired from Bay Genomics (University of California). All experimental mice were on a mixed C57BL/6J and 129/SvEv background. Expected Mendelian ratios were observed when heterozygous animals were bred to wild-type. In heterozygous crosses, however, there was uniform embryonic lethality of homozygotes by ED 12, the earliest developmental stage assayed. For treatment with AR-42, mice were orally gavaged daily with drug (Selleck Chemicals, Houston, Tex.) solubilized in vehicle (0.5% methylcellulose, 0.1% Tween-80, water) or with vehicle alone. Drug delivery information was kindly provided by Drs. […] For quantification of DCX positive cells, doses of 0, 5, 10 and 25 mg/kg/day were used. […] Maxillary protrusion was evaluated by ten investigators blinded to genotype and they were asked to rate maxillary protrusion on radiographs as either large (2) or small (1). […]
# Z-stack images of slides were taken at either 10× using Zeiss Axiovert 200 with 510-Meta confocal module (Carl Zeiss, Jena, GER) or 25× using Zeiss AxioExaminer with 710NLO-Meta multiphoton (Carl Zeiss, Jena, GER). From 10× pictures, the GCL was highlighted and fluorescent intensities for both DAPI and H3K4me3 were measured at the midpoint of the entire z-stack (Zen software, Carl Zeiss, Jena, GER) with the value for Kmt2d^+/+ animals set equal to one. […]
# [2] = test system: DCX positive cells in the GCL (neurogenesis); experiment: Doublecortin (DCX) expression in the GCL (neurogenesis) after oral AR-42; format: in vivo, mouse
# Excerpt: Kmt2d^+/βGeo mice, also named Mll2Gt^(RRt024) Byg, were acquired from Bay Genomics (University of California). All experimental mice were on a mixed C57BL/6J and 129/SvEv background. Expected Mendelian ratios were observed when heterozygous animals were bred to wild-type. In heterozygous crosses, however, there was uniform embryonic lethality of homozygotes by ED 12, the earliest developmental stage assayed. For treatment with AR-42, mice were orally gavaged daily with drug (Selleck Chemicals, Houston, Tex.) solubilized in vehicle (0.5% methylcellulose, 0.1% Tween-80, water) or with vehicle alone. Drug delivery information was kindly provided by Drs. Chen and Kulp from Ohio State University (Huang et al. (2011) Mol. Pharmacol. 79:197-20619). Drug was administered for 14 days and mice were sacrificed on day 15. Morris water maze testing was initiated at day 7 and a dose of 10 mg/kg/day was used for these studies. For quantification of DCX positive cells, doses of 0, 5, 10 and 25 mg/kg/day were used. Genotyping was performed using primers B-GeoF-([…]; SEQ ID NO: 1) and B-GeoR-([…]; SEQ ID NO: 2) that are specific for the targeted allele and TcrdF-([…]; SEQ ID NO: 3) and TcrdR-([…]; SEQ ID NO: 4) that control for sufficient DNA concentration. Real-time PCR using the same primers allows discrimination between the heterozygous and homozygous state for the targeted allele. Maxillary protrusion was evaluated by ten investigators blinded to genotype and they were asked to rate maxillary protrusion on radiographs as either large (2) or small (1). […] All experiments were performed using mouse protocols approved by the Animal Care and Use Committee of Johns Hopkins University School of Medicine. The mouse protocols used for this study are in accordance with the guidelines used by the NIH for mouse care and handling.
# Every 6th brain section was selected and then blocked with 5% Bovine Serum Albumin (BSA) at room temperature followed by incubation with primary antibodies overnight at 4° C. Secondary antibodies were then applied for 1 hour at room temperature, after which sections were mounted onto microscope slides with Vectamount with DAPI (Vector Laboratories, Burlingame, Calif.). Primary antibodies included Doublecortin (DCX) (SC-8066, Santa Cruz Biotechnology, Dallas, Tex., 1:200 goat), trimethylated H3K4 (9727L, Cell Signaling Technology, Beverly, Mass., 1:500 rabbit), and Kmt2d H-300 (SC-292359, Santa Cruz Biotechnology, Dallas, Tex., 1:500 rabbit). Non-specific binding was not observed when sections were sequentially exposed to serum (or IgG when appropriate) from the same species as the primary antibody for each experiment (i.e. rabbit for KMT2D and H3K4me3 and goat for doublecortin), followed by the secondary antibody used for KMT2D and H3K4me3 (anti-rabbit) or doublecortin (anti-goat, FIG. 29).
# The area of both the GCL and DCX+ cells was measured using the NS elements 2.0 software (Nikon, Tokyo, JPN). Normalized DCX area was calculated by measuring the DCX+ area of the GCL and setting the baseline (Kmt2d^+/+) fraction to 1. A Student t-test with significance value set at P<0.05 was used for comparison of DCX+ area referenced to GCL area between genotypes and treatment arms.
smiles,measurement,setting,value
"CC(C)[C@H](C(=O)Nc1ccc(C(=O)NO)cc1)c1ccccc1 [AR-42, (S)—N-hydroxy-4-(3-methyl-2-phenylbutanamido)benzamide]",H3K4me3 in the GCL,[1],increased H3K4 trimethylation
same,DCX expression in the GCL,"[2]; 10 mg/kg/day, older (5-6 months) Kmt2d+/βGeo mice, FIG. 24D",improved
same,difference in normalized DCX expression between mutant and wild-type animals,"[2]; 10 mg/kg/day, one to two month old mice",no difference between mutant and wild-type animals
same,DCX expression in the GCL,"[2]; 25 mg/kg/day, Kmt2d+/+ animals, FIG. 24C",reduced DCX expression
same,DCX expression in the GCL,"[2]; 25 mg/kg/day, Kmt2d+/βGeo mice, FIG. 24C",did not improve DCX expression
same,DCX expression in the GCL,"[2]; 25 mg/kg/day, young (1-2 month) and old (5-6 month) Kmt2d+/+ and Kmt2d+/βGeo mice",decreased DCX expression
same,DCX expression in the GCL,"[2]; 5 and 10 mg/kg/day, Kmt2d+/+ (preservation) or Kmt2d+/βGeo (restoration), both age groups",preservation or restoration of DCX expression
same,postnatal neurogenesis in the granule cell layer of the dentate gyrus (overall statement),"[2]; mouse model of KS, ages 1-2 months and 5-6 months",beneficial effect; also recorded: rescued postnatal neurogenesis
same,neurogenesis (normalized DCX expression),"[2]; one to two month old Kmt2d+/βGeo mice, 0-10 mg/kg/day, FIG. 25C, 25D",dose-dependent increase in neurogenesis
